In patent US8022091B2, “Triazole derivative” (Taisho Pharmaceutical Co., Ltd., priority 2006, dated 2011):

What was measured:
human Edg-1 (S1P1) = molecular target: T1, human Edg-1 (S1P1) (Homo sapiens, UniProt P21453); assay: S1P1 binding assay: inhibition of [33P]-S1P binding to membrane fraction of HEK-293 cells transferred with the human Edg-1 (S1P1) gene; settings: for IC50: [33P]-S1P 0.1 nM, human Edg-1 (S1P1) HEK-293 membrane fraction, 1 h at 30° C., read-out: IC50 (concentration at which binding in the absence of the test compound was inhibited by 50%)
T1 construct: expressed in transfected cells; host or cells: HEK-293
T1 sequence (P21453 whole entry): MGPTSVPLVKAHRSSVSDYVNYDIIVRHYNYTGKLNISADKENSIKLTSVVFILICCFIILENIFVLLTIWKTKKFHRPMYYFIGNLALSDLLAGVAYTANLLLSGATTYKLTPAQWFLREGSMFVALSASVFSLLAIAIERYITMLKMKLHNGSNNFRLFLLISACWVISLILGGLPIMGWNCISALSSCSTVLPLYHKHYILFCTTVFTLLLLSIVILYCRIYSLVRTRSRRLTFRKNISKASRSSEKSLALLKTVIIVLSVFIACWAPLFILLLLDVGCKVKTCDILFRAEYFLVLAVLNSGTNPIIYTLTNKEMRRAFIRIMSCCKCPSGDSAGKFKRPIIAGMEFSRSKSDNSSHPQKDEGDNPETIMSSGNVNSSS
Method in brief: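 Membranes from S1P1-transfected HEK-293 cells incubated 1 h at 30° C in pH 7.4 Tris buffer with fatty acid-free BSA, 0.1 nM [33P]-S1P and test compound (0.1% DMSO). Filter-bound radioactivity was counted; inhibition corrected for binding to untransfected-cell membranes, and IC50 derived from concentration series.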

[1] = test compound at 10 μM, inhibition of [33P]-S1P binding to the membrane fraction of HEK-293 cells expressing human Edg-1 (S1P1)
[2] = test compound 10 μM, inhibition of [33P]-S1P binding, membrane fraction

SMILES | melting point [°C] | inhibition at 10 µM (human Edg-1 (S1P1); [1]) [%] | IC50 (human Edg-1 (S1P1)) [µM] | inhibition at 10 µM (human Edg-1 (S1P1); [2]) [%]
CCn1c(Oc2ccc3cc[nH]c3c2)nnc1[C@@H](C)NS(=O)(=O)c1cccc(C(F)(F)F)c1 [Compound 135] | 188.5 to 192 | 101 | – | –
CCn1c(Oc2cccc(N3CCN(C)CC3)c2)nnc1[C@@H](C)NS(=O)(=O)c1ccc2c(C#N)cccc2c1 [Compound 692] | 227 to 229 | – | 0.0051 | 98.5
CCn1c(Oc2ccc(OCc3ccccc3)cc2)nnc1[C@@H](C)NS(=O)(=O)c1ccc(Cl)c(Cl)c1 [Compound 23] | 173 to 176 | 96.7 | ≤ 0.035 | –
CCn1c(Oc2ccc(C)nc2)nnc1[C@@H](C)NS(=O)(=O)c1ccc(Cl)c(Cl)c1 [Compound 51] | 148.5 to 150.5 | 99.9 | – | –
CCn1c(Oc2cccc(N3CCN(C)CC3)c2)nnc1[C@@H](C)NS(=O)(=O)c1ccc(Cl)c(Cl)c1Cl [Compound 143] | 144 to 145 | 99.9 | 0.0073 | –
CCn1c(Oc2cccc(NC(N)=O)c2)nnc1[C@@H](C)NS(=O)(=O)c1ccc(Cl)c(Cl)c1 [Compound 91, 3,4-Dichloro-N-[(R)-1-[4-ethyl-5-(3-ureido-phenoxy)-4H-[1,2,4]triazol-3-yl]-ethyl]-benzenesulfonamide] | 137 to 138 | 90.6 | – | –
CCn1c(Oc2cc(OC)c(OC)c(OC)c2)nnc1[C@@H](C)NS(=O)(=O)c1ccc(Cl)c(Cl)c1 [Compound 17] | 129.5 to 131.5 | 95.4 | – | –
CCn1c(Oc2cccc(N(C)C)c2)nnc1[C@@H](C)NS(=O)(=O)c1ccc(Cl)c(Cl)c1 [Compound 28] | 165 to 170 | 104 | 0.0031 | –
CCn1c(Oc2ccc(N3CCOCC3)cc2)nnc1[C@@H](C)NS(=O)(=O)c1ccc(Cl)c(Cl)c1 [Compound 47] | 191 to 192 | 102 | – | –
CCc1ccc(Oc2nnc([C@@H](C)NS(=O)(=O)c3ccc(Cl)c(Cl)c3)n2CC)cc1 [Compound 24] | 172.5 to 173 | 101 | ≤ 0.01 | –
CCn1c(Oc2cccc(C)c2)nnc1[C@@H](C)NS(=O)(=O)c1ccc(Cl)c(Cl)c1 [Compound 5] | 160 to 161 | 97.3 | ≤ 0.035 | –
CCn1c(Oc2ccc(C3CCCCC3)cc2)nnc1[C@@H](C)NS(=O)(=O)c1ccc(Cl)c(Cl)c1 [Compound 15] | 200 to 205 | 103 | 0.0325 | –
CCn1c(Oc2ccc(N3CCCCC3)cc2)nnc1[C@@H](C)NS(=O)(=O)c1ccc(Cl)c(Cl)c1 [Compound 48] | 195.5 to 196.5 | 96.7 | – | –
CCn1c(Oc2cc(C)cc(C)n2)nnc1[C@@H](C)NS(=O)(=O)c1ccc(Cl)c(Cl)c1 [Compound 95] | 205 to 208.5 | 92.4 | – | –
CCn1c(Oc2ccc3[nH]c(C)cc3c2)nnc1[C@@H](C)NS(=O)(=O)c1ccc(Cl)c(Cl)c1 [Compound 65] | 201 to 202 | 105 | – | –
CCn1c(Oc2ccc(Oc3ccccc3)cc2)nnc1[C@@H](C)NS(=O)(=O)c1ccc(Cl)c(Cl)c1 [Compound 22] | 163 to 167.5 | 95.4 | 0.014 | –
C[C@@H](NS(=O)(=O)c1ccc(Cl)c(Cl)c1)c1nnc(Oc2ccc(F)cc2)n1C1CC1 [Compound 124] | 178.5 to 180 | 97.4 | – | –
CCn1c(Oc2cccc(N3CCN(C)CC3)c2)nnc1[C@@H](C)NS(=O)(=O)c1ccc(C)c(Cl)c1 [Compound 133] | 164 to 169.5 | 101 | ≤ 0.01 | –
CCn1c(Oc2ccc3cc[nH]c3c2)nnc1[C@@H](C)NS(=O)(=O)c1ccc(Cl)c(Cl)c1Cl [Compound 134] | 108.5 to 114.5 | 101 | ≤ 0.035 | –
CCn1c(Oc2cccc(NC(C)=O)c2)nnc1[C@@H](C)NS(=O)(=O)c1ccc(Cl)c(Cl)c1 [Compound 84] | 160 to 165 | 100 | – | –

SMILES | melting point [°C] | inhibition at 10 µM (human Edg-1 (S1P1); [1]) [%] | IC50 (human Edg-1 (S1P1)) [µM] | inhibition at 10 µM (human Edg-1 (S1P1); [2]) [%]
CCn1c(Oc2cc(C)nc(C)c2)nnc1[C@@H](C)NS(=O)(=O)c1ccc(Cl)c(Cl)c1 [Compound 80] | 164 to 165 | 87.6 | – | –
CCn1c(Oc2cccc(N3CCC3)c2)nnc1[C@@H](C)NS(=O)(=O)c1ccc(Cl)c(Cl)c1 [Compound 75] | 177 to 179 | 95 | ≤ 0.01 | –
CCn1c(Oc2ccc(OC)c(OC)c2)nnc1[C@@H](C)NS(=O)(=O)c1ccc(Cl)c(Cl)c1 [Compound 16] | 125 to 127 | 101 | ≤ 0.035 | –
CCn1c(Oc2ccc(F)c(Cl)c2)nnc1[C@@H](C)NS(=O)(=O)c1ccc(Cl)c(Cl)c1 [Compound 31] | 143 to 146 | 101 | – | –
CCn1c(Oc2ccc3cc[nH]c3c2)nnc1[C@@H](C)NS(=O)(=O)c1ccc2ccccc2c1 [Compound 130] | 107 to 114 | 98.9 | 0.0029 | –
CCn1c(Oc2cccc(N3CCN(C)CC3)c2)nnc1[C@@H](C)NS(=O)(=O)/C=C/c1ccccc1 [Compound 146] | 121 to 122 | 102 | 0.012 | –
CCn1c(Oc2cccc(N3CCN(C)CC3)c2)nnc1[C@@H](C)NS(=O)(=O)c1ccc2c(I)cccc2c1 [Compound 690] | 198 to 200 | – | ≤ 0.01 | 102
CCn1c(Oc2cccc(-n3cnnc3)c2)nnc1[C@@H](C)NS(=O)(=O)c1ccc(Cl)c(Cl)c1 [Compound 89] | 101 to 103 | 90.3 | – | –
CCNC(=O)Nc1cccc(Oc2nnc([C@@H](C)NS(=O)(=O)c3ccc(Cl)c(Cl)c3)n2CC)c1 [Compound 92, 3,4-Dichloro-N-((R)-1-[4-ethyl-5-[3-(3-ethylureido)-phenoxy]-4H-[1,2,4]triazol-3-yl]-ethyl)-benzenesulfonamide] | 118 to 120 | 92.1 | – | –
CCn1c(Oc2ccccn2)nnc1[C@@H](C)NS(=O)(=O)c1ccc(Cl)c(Cl)c1 [Compound 53] | 172 to 173 | 86.8 | – | –
CCn1c(Oc2cccc(N3CCN(C)CC3)c2)nnc1[C@@H](C)NS(=O)(=O)c1ccc(Br)c(Br)c1 [Compound 112] | 171 to 173 | 99.2 | ≤ 0.01 | –
CCn1c(Oc2ccc(N(C)C)cc2)nnc1[C@@H](C)NS(=O)(=O)c1ccc(Cl)c(Cl)c1 [Compound 43] | 182.5 to 185 | 99.8 | ≤ 0.035 | –
CCN(CC)c1cccc(Oc2nnc([C@@H](C)NS(=O)(=O)c3ccc(Cl)c(Cl)c3)n2CC)c1 [Compound 70] | 144 to 146 | 96.5 | ≤ 0.01 | –
CCn1c(Oc2ccc(F)c(C)c2)nnc1[C@@H](C)NS(=O)(=O)c1ccc(Cl)c(Cl)c1 [Compound 37] | 145 to 147 | 100 | ≤ 0.035 | –
CCn1c(Oc2ccc(F)c(F)c2)nnc1[C@@H](C)NS(=O)(=O)c1ccc(Cl)c(Cl)c1 [Compound 44] | 140 to 145.5 | 100 | – | –
CCn1c(Oc2cccc(Cl)c2)nnc1[C@@H](C)NS(=O)(=O)c1ccc(Cl)c(Cl)c1 [Compound 9] | 145 to 148 | 100 | – | –
CCn1c(Oc2cccc(N3CCN(C)CC3)c2)nnc1[C@@H](C)NS(=O)(=O)c1ccc2c(Br)cccc2c1 [Compound 667] | 207 to 208 | – | ≤ 0.01 | 99.2
CCn1c(Oc2ccc(Cl)cc2)nnc1[C@@H](C)NS(=O)(=O)c1ccc2ccccc2c1 [Compound 141] | 169 to 173 | 105 | ≤ 0.035 | –
CCn1c(Oc2cccc(-n3ccnc3)c2)nnc1[C@@H](C)NS(=O)(=O)c1ccc(Cl)c(Cl)c1 [Compound 85] | 133 to 134 | 100 | – | –
